Read-outs that look alike come from different tables or passages of the source.
Tests used:
IPEC-1 cells [1] = assay: cells; conditions: Sus scrofa, 48 h, read-out: IC50 (dose leading to a 50% reduction in cell viability)
IPEC-J2 = conditions: read-out: relative IC50; cited from earlier work
[2] = test system: human multiple myeloma blood cells; conditions: cited from earlier work
IPEC-1 cells [3] = conditions: for Individual toxicity compared with DON: IPEC-1, 48 h, dose-effect curves; for IC50: read-out: IC50 (dose leading to a 50% reduction in cell viability); for IC50 / IC50 (dose leading to a 50% reduction in cell viability): mean ± SEM of three biological replicates; for Toxicity to intestinal cells at high concentrations: IPEC-1, concentrations of up to 300 µM
[4] = test system: lymphocytes and splenocytes; conditions: cited from earlier work
HepG2 [5] = conditions: cited from earlier work
Caco-2 = conditions: cited from earlier work
HepG2 [6] = conditions: HepG2, 2 mM; cited from earlier work
THP-1 cells = conditions: THP-1, 2 mM; cited from earlier work
A549 = conditions: A549, 2 mM; cited from earlier work
[7] = ratio 3, highest concentration(s): DON 50 µM + EMO 5 µM / ENN-B 17.2 µM / BEA 2.3 µM / ENN-A1 6.5 µM, ENN-B1 6 and 18 µM
[8] = lymphocytes and splenocytes, low doses (> 0.1µM)

Cc1cc(O)c2c(c1)C(=O)c1cc(O)cc(O)c1C2=O [Emodin]
IC50 (IPEC-1 cells [1]): 19 ± 0.7 µM | IC50 (IPEC-J2): 13.1 µM | IC50 [2]: 38 µM | Proliferation induced by the toxin alone (IPEC-1 cells [3]): up to 130% | Toxicity (classification from IC50 compared with DON) (IPEC-1 cells [3]): Moderately toxic | Individual toxicity compared with DON (IPEC-1 cells [3]): less than that of DON | Toxicity of the combination of DON and the emerging mycotoxin (IPEC-1 cells [3]; [7]): less toxic than DON alone

CC1=C[C@H]2O[C@@H]3[C@H](O)C[C@](C)([C@@]2(CO)[C@H](O)C1=O)[C@]31CO1 [Deoxynivalenol]
Proliferation [4, 8]: up to 200% | Toxicity (classification from IC50 compared with DON) (IPEC-1 cells [3]): Highly toxic | IC50 (IPEC-1 cells [3]): 3.2 ± 0.7 µM

CCCC[C@@H](C)[C@@H](OC(=O)C[C@@H](CC(=O)O)C(=O)O)[C@H](C[C@@H](C)C[C@H](O)CCCC[C@@H](O)C[C@H](O)[C@H](C)N)OC(=O)C[C@@H](CC(=O)O)C(=O)O [fumonisin B1]
Proliferation [4, 8]: up to 200%

O=C1N[C@@H](Cc2c[nH]c3ccccc23)C(=O)N2CCC[C@@H]12 [Brevianamide F]
Toxicity (classification from IC50 compared with DON) (IPEC-1 cells [3]): Non-toxic | Toxicity to intestinal cells at high concentrations (IPEC-1 cells [3]): not toxic | IC50 (dose leading to a 50% reduction in cell viability) (IPEC-1 cells [3]): Non-Toxic

CC1=C[C@H]2O[C@@H]3[C@H](O)[C@@H](O)[C@](C)([C@@]2(CO)[C@H](O)C1=O)[C@]31CO1 [nivalenol]
Proliferation [4]: up to 200%

CC(C)[C@H]1C(=O)O[C@H](C(C)C)C(=O)N(C)[C@@H](C(C)C)C(=O)O[C@H](C(C)C)C(=O)N(C)[C@@H](C(C)C)C(=O)O[C@H](C(C)C)C(=O)N1C [Enniatin B]
IC50 (IPEC-1 cells [1]): 4.4 ± 0.9 µM | Toxicity (HepG2 [5]): no toxicity at all | Toxicity (Caco-2): no toxicity at all | Toxicity (classification from IC50 compared with DON) (IPEC-1 cells [3]): Highly toxic | Toxicity of the emerging mycotoxin alone (IPEC-1 cells [3]): not toxic | Individual toxicity compared with DON (IPEC-1 cells [3]): close to that of DON | Toxicity of the combination of DON and the emerging mycotoxin (IPEC-1 cells [3]; [7]): lower than the toxicity of either DON alone or ENN-B alone

Beauvericin
IC50 (IPEC-1 cells [3]): 4.3 ± 1.8 µM

OCCc1c[nH]c2ccccc12 [Tryptophol]
DNA damage (HepG2 [6]): induced DNA damage | DNA damage (THP-1 cells): induced DNA damage | DNA damage (A549): induced DNA damage | Toxicity (classification from IC50 compared with DON) (IPEC-1 cells [3]): Non-toxic | Toxicity to intestinal cells at high concentrations (IPEC-1 cells [3]): not toxic | IC50 (dose leading to a 50% reduction in cell viability) (IPEC-1 cells [3]): Non-Toxic

CCC(=O)CCCCC[C@@H]1NC(=O)[C@H]2CCCCN2C(=O)[C@H]([C@@H](C)CC)NC(=O)[C@H](Cc2cn(OC)c3ccccc23)NC1=O [Apicidin]
IC50 (IPEC-1 cells [1]): 1.5 ± 0.5 µM | Toxicity (classification from IC50 compared with DON) (IPEC-1 cells [3]): Highly toxic | Toxicity of the emerging mycotoxin alone (IPEC-1 cells [3]): not toxic | Individual toxicity compared with DON (IPEC-1 cells [3]): more toxic than DON | Concentration at which toxicity was confirmed (IPEC-1 cells [3]; pig): > 500 nM | Toxicity of the combination of DON and the emerging mycotoxin (IPEC-1 cells [3]; ratio 2, doses lower than DON (5.6 µM) + API (0.09 µM)): lower than the toxicity of DON alone, but higher than API alone

COC1=C(C2=C(OC)C(=O)c3cc4oc(C)cc(=O)c4c(O)c3C2=O)C(=O)c2c(cc3oc(C)cc(=O)c3c2O)C1=O [Aurofusarin]
IC50 (IPEC-J2): 9.3 µM | Toxicity (classification from IC50 compared with DON) (IPEC-1 cells [3]): Moderately toxic | Toxicity of the emerging mycotoxin alone (IPEC-1 cells [3]): minimal | Individual toxicity compared with DON (IPEC-1 cells [3]): less than that of DON | IC50 (IPEC-1 cells [3]): 19.1 ± 3.4 µM

aflatoxin B1
Proliferation [4]: up to 200%

Enniatin A1
IC50 (IPEC-1 cells [3]): 1.6 ± 0.3 µM

O=C1N[C@@H](Cc2ccc(O)cc2)C(=O)N2CCC[C@@H]12 [Cyclo-(L-Pro-L-Tyr)]
Toxicity (classification from IC50 compared with DON) (IPEC-1 cells [3]): Non-toxic | Toxicity to intestinal cells at high concentrations (IPEC-1 cells [3]): not toxic | IC50 (dose leading to a 50% reduction in cell viability) (IPEC-1 cells [3]): Non-Toxic

CC[C@H](C)[C@H]1C(=O)O[C@H](C(C)C)C(=O)N(C)[C@@H](C(C)C)C(=O)O[C@H](C(C)C)C(=O)N(C)[C@@H](C(C)C)C(=O)O[C@H](C(C)C)C(=O)N1C [Enniatin B1]
IC50 (IPEC-1 cells [1]): 13.5 ± 2.5 µM | Toxicity (classification from IC50 compared with DON) (IPEC-1 cells [3]): Moderately toxic | Toxicity of the emerging mycotoxin alone (IPEC-1 cells [3]): minimal | Individual toxicity compared with DON (IPEC-1 cells [3]): less than that of DON | Toxicity of the combination of DON and the emerging mycotoxin (IPEC-1 cells [3]; in mixture with DON, ratio 3, in general (exceptions reported separately)): the same as the toxicity of DON alone | Toxicity of the combination of DON and the emerging mycotoxin (IPEC-1 cells [3]; ratio 2, highest concentration: DON 50 µM + ENN-B1 4.1 µM / ENN-B 3.6 µM / ENN-A1 1.7 µM): higher than the toxicity of ENN-B1 alone, but lower than the toxicity of DON alone | Toxicity of the combination of DON and the emerging mycotoxin (IPEC-1 cells [3]; [7]): the same as the toxicity of ENN-B1 alone, but lower than the toxicity of DON alone
